Measured values as given in patent US20240174723A1, “STAPLED ANTIMICROBIAL PEPTIDES (STAMPS) AND USES THEREOF” (Lytica Therapeutics, Inc., priority 2021, published 2024).
Values after ≈ are worked out from the molar mass of the structure shown. Positions of bridges follow the written chain, without caps; N, C: chain ends. Non-standard residues stand in square brackets, D forms with d. Residues, ends and D or L forms follow the SMILES beside them. Phe(4-tBu) = CC(C)(C)c1ccc(C[C@H](N)C(=O)O)cc1; S5 = C=CCCC[C@](C)(N)C(=O)O; Dap = NC[C@H](N)C(=O)O

Key:
E. coli = format: cell-based, Escherichia coli
In short: (§1)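 MIC is the minimum StAMP concentration showing no visible growth after 20-24 h incubation at 37° C. Serially diluted peptides met bacteria regrown 3-4 h after overnight culture, at 5×10^5 CFU/ml final, in Mueller-Hinton broth or its cation-adjusted form, per a modified CLSI microdilution.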

A. baumannii = format: cell-based, Acinetobacter baumannii
In short: as §1

P. aeruginosa = format: cell-based, Pseudomonas aeruginosa
In short: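 MIC taken as lowest peptide concentration with no visible growth after 20-24 h at 37 °C. Peptide serial dilutions from water stocks met P. aeruginosa inoculum (5×10^5 CFU/ml final) in MHB or MHB II, per a CLSI-adapted microbroth protocol.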

K. pneumoniae = format: cell-based, Klebsiella pneumoniae
In short: as §1

S. aureus = format: cell-based, Staphylococcus aureus
In short: as §1

in vitro [1] = format: cell-based; conditions: human
Method: Cell culture: RPTEC were maintained in MEM media supplemented with growth factors. HEPG2 cell line was maintained in Eagle's Minimum Essential Medium (EMEM) supplemented with fetal bovine serum to a final concentration of 10%.
90 minute cytotoxicity assay: Cells were plated in a 96-well format, and after overnight incubation, media was replaced with fresh media. Serial dilutions of StAMPs from a 5 mg/mL water stock, or vehicle, were added to the cells in a final volume of 100 μl. After incubating at 37° C. for 90 min, 50 μl of cell culture media was transferred to a clear 96-well plate, incubated with 50 μl of lactate dehydrogenase (LDH) assay reagent for 10 min, and absorbance measured at 490 nm on a microplate reader.
Renal toxicity was measured after 90 minutes of incubation, while liver toxicity was measured after 48 hours of incubation with StAMPs. N/A=not tested. The following apply to all peptides (i.e., StAMPs) listed in Tables A-C: Crosslinks (X^1—X^2 and X^3—X^4): (alk); N-terminus: —NH2; C-terminus: amidated with —NH2; counterion: Cl^−. The following apply to all peptides (i.e., StAMPs) listed in Table D: Crosslinks (X^1—X^2 and X^3—X^4): (alk); N-terminus: —NH2; C-terminus: as shown in table; counterion: Cl^−.
StAMP Micelle Formulation: DSPE-MPEG(2000) was suspended in buffered saline at 50-100 mg/mL overnight. StAMP stock solutions at 5-20 mg/mL in buffered saline were prepared and equal volumes of micelle and StAMP stock solution were mixed at the desired StAMP:Lipid ratio. Suspensions were allowed to sit for 5-10 minutes at room temperature before being used in in vitro and in vivo assays.
In Table E, the StAMP is StAMP 4 (Table A) and “Lipid”=DSPE-MPEG(2000).

in vitro [2] = format: cell-based; conditions: human, Inhibitory Concentration at 50% Cytotoxicity (IC50) Human Liver Cells (HepG2)
In short: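 Cytotoxicity read by CellTiter-Glo luminescence after 48 h at 37 °C exposure to serially diluted StAMPs or vehicle. HepG2 cells were grown in EMEM plus 10% FBS and given 4 h to attach before dosing; peptides came from a 5 mg/mL aqueous stock.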

SMILES | Minimum Inhibitory Concentration (MIC) E. coli (E. coli) | Minimum Inhibitory Concentration (MIC) A. baumannii (A. baumannii) | Minimum Inhibitory Concentration (MIC) P. aeruginosa (P. aeruginosa) | Minimum Inhibitory Concentration (MIC) K. pneumoniae (K. pneumoniae) | Minimum Inhibitory Concentration (MIC) S. aureus (S. aureus) | IC50 at 90 min (in vitro [1]) | IC50 at 48 hours (in vitro [2])
CC(C)[C@@H]1NC(=O)[C@@](C)(NC(=O)[C@H](C)NC(=O)[C@H](CCCCN)NC(=O)CNC(=O)[C@H](Cc2ccccc2)NC(=O)[C@H](CCCCN)NC(=O)[C@H](CCCCN)NC(=O)[C@H](CCCCN)NC(=O)[C@H](CO)NC(=O)[C@H](Cc2c[nH]cn2)NC(=O)[C@]2(C)CCCC=CCCC[C@](C)(NC(=O)CN)C(=O)NCC(=O)N[C@@H](CCCCN)C(=O)N[C@@H](Cc3c[nH]c4ccccc34)C(=O)N2)CCCC=CCCC[C@@](C)(C(=O)N[C@@H](C)C(=O)N[C@@H](CCCCN)C(=O)N[C@@H](CCCCN)C(N)=O)NC(=O)[C@H](CCC(=O)O)NC(=O)CNC1=O [compound 59] (H-G[S5]GKW[S5]HSKKKFGKA[S5]VGE[S5]AKK-NH2; staple 2-6, 16-20) | 4 µg/mL | 4 µg/mL | 8 µg/mL | 64 µg/mL | >64 µg/mL | > 200 µg/mL | > 200 µg/mL
CC(C)[C@@H]1NC(=O)[C@H](C(C)C)NC(=O)[C@@](C)(NC(=O)[C@H](C)NC(=O)[C@H](CCCCN)NC(=O)CNC(=O)[C@H](Cc2ccc(C(C)(C)C)cc2)NC(=O)[C@H](CCCCN)NC(=O)[C@H](CCCCN)NC(=O)[C@H](CCCCN)NC(=O)[C@H](CCCCN)NC(=O)[C@H](Cc2c[nH]cn2)NC(=O)[C@]2(C)CCCC=CCCC[C@](C)(NC(=O)CN)C(=O)NCC(=O)N[C@@H](CCCCN)C(=O)N[C@@H](Cc3ccc(C(C)(C)C)cc3)C(=O)N2)CCCC=CCCC[C@@](C)(C(=O)N[C@@H](C)C(=O)N[C@@H](CCCCN)C(=O)N[C@@H](CCCCN)C(N)=O)NC(=O)[C@H](CCC(=O)O)NC1=O [compound 31] (H-G[S5]GK[Phe(4-tBu)][S5]HKKKK[Phe(4-tBu)]GKA[S5]VVE[S5]AKK-NH2; staple 2-6, 16-20) | 4 µg/mL | 4 µg/mL | 8 µg/mL | 8 µg/mL | 16 µg/mL | 9 µg/mL (≈ 3.3 µM) | 101 µg/mL (≈ 37 µM)
CC(C)[C@@H]1NC(=O)[C@@](C)(NC(=O)[C@H](C)NC(=O)[C@H](CCCCN)NC(=O)CNC(=O)[C@H](Cc2ccccc2)NC(=O)[C@H](CCCCN)NC(=O)[C@H](CCCCN)NC(=O)[C@H](CCCCN)NC(=O)[C@H](Cc2c[nH]c3ccccc23)NC(=O)[C@H](Cc2c[nH]cn2)NC(=O)[C@]2(C)CCCC=CCCC[C@](C)(NC(=O)CN)C(=O)NCC(=O)N[C@@H](CCCCN)C(=O)N[C@@H](Cc3ccccc3)C(=O)N2)CCCC=CCCC[C@@](C)(C(=O)N[C@@H](C)C(=O)N[C@@H](CCCCN)C(=O)N[C@@H](CCCCN)C(N)=O)NC(=O)[C@H](CCC(=O)O)NC(=O)CNC1=O [compound 61] (H-G[S5]GKF[S5]HWKKKFGKA[S5]VGE[S5]AKK-NH2; staple 2-6, 16-20) | 8 µg/mL | 4 µg/mL | 8 µg/mL | 64 µg/mL | >64 µg/mL | 150 µg/mL (≈ 57 µM) | > 200 µg/mL

More lines, main results first:

Minimum Inhibitory Concentration (MIC) E. coli (E. coli) | Minimum Inhibitory Concentration (MIC) A. baumannii (A. baumannii) | Minimum Inhibitory Concentration (MIC) P. aeruginosa (P. aeruginosa) | Minimum Inhibitory Concentration (MIC) K. pneumoniae (K. pneumoniae) | Minimum Inhibitory Concentration (MIC) S. aureus (S. aureus) | IC50 at 90 min (in vitro [1]) | SMILES | IC50 at 48 hours (in vitro [2])
1 µg/mL | 16 µg/mL | 16 µg/mL | 16 µg/mL | 64 µg/mL | > 200 µg/mL | CC(C)[C@@H]1NC(=O)[C@@](C)(NC(=O)[C@H](C)NC(=O)[C@H](CN)NC(=O)CNC(=O)[C@H](Cc2ccccc2)NC(=O)[C@H](CN)NC(=O)[C@H](CN)NC(=O)[C@H](CN)NC(=O)[C@H](CN)NC(=O)[C@H](CN)NC(=O)[C@]2(C)CCCC=CCCC[C@](C)(NC(=O)CN)C(=O)NCC(=O)N[C@@H](CN)C(=O)N[C@@H](Cc3ccccc3)C(=O)N2)CCCC=CCCC[C@@](C)(C(=O)N[C@@H](C)C(=O)N[C@@H](CN)C(=O)N[C@@H](CN)C(=O)NCC(N)=O)NC(=O)[C@H](CCC(=O)O)NC(=O)CNC1=O [compound 76] (H-G[S5]G[Dap]F[S5][Dap][Dap][Dap][Dap][Dap]FG[Dap]A[S5]VGE[S5]A[Dap][Dap]G-NH2; staple 2-6, 16-20) | > 200 µg/mL
8 µg/mL | 4 µg/mL | 8 µg/mL | >64 µg/mL | >64 µg/mL | > 200 µg/mL | CC(C)[C@@H]1NC(=O)[C@@](C)(NC(=O)[C@H](C)NC(=O)[C@H](CCCCN)NC(=O)CNC(=O)[C@H](Cc2ccccc2)NC(=O)[C@H](CCCCN)NC(=O)[C@H](CCCCN)NC(=O)[C@H](CCCCN)NC(=O)[C@@H](NC(=O)[C@H](Cc2c[nH]cn2)NC(=O)[C@]2(C)CCCC=CCCC[C@](C)(NC(=O)CN)C(=O)NCC(=O)N[C@@H](CCCCN)C(=O)N[C@@H](Cc3ccccc3)C(=O)N2)[C@@H](C)O)CCCC=CCCC[C@@](C)(C(=O)N[C@@H](C)C(=O)N[C@@H](CCCCN)C(=O)N[C@@H](CCCCN)C(N)=O)NC(=O)[C@H](CCC(=O)O)NC(=O)CNC1=O [compound 8] (H-G[S5]GKF[S5]HTKKKFGKA[S5]VGE[S5]AKK-NH2; staple 2-6, 16-20) | > 200 µg/mL
2 µg/mL | 2 µg/mL | 4 µg/mL | 2 µg/mL | 64 µg/mL | 96 µg/mL (≈ 32.5 µM) | CC(C)[C@@H]1NC(=O)[C@@](C)(NC(=O)[C@H](C)NC(=O)[C@H](CCCCN)NC(=O)CNC(=O)[C@H](Cc2ccccc2)NC(=O)[C@H](CCCCN)NC(=O)[C@H](CCCCN)NC(=O)[C@H](CCCCN)NC(=O)[C@H](CCCCN)NC(=O)[C@H](CCCCN)NC(=O)[C@]2(C)CCCC=CCCC[C@](C)(NC(=O)CN)C(=O)NCC(=O)N[C@@H](CCCCN)C(=O)N[C@@H](Cc3ccccc3)C(=O)N2)CCCC=CCCC[C@@](C)(C(=O)N[C@@H](C)C(=O)N[C@@H](CCCCN)C(=O)N[C@@H](CCCCN)C(=O)NCC(=O)NCC(=O)N[C@@H](CCC(=O)O)C(N)=O)NC(=O)[C@H](CCC(=O)O)NC(=O)[C@H](Cc2ccc(C(C)(C)C)cc2)NC1=O [compound 36] (H-G[S5]GKF[S5]KKKKKFGKA[S5]V[Phe(4-tBu)]E[S5]AKKGGE-NH2; staple 2-6, 16-20) | > 200 µg/mL
2 µg/mL | 2 µg/mL | 4 µg/mL | 4 µg/mL | >64 µg/mL | 251 µg/mL (≈ 96 µM) | CC(C)[C@@H]1NC(=O)[C@H](C(C)C)NC(=O)[C@@](C)(NC(=O)[C@H](C)NC(=O)[C@H](CCCCN)NC(=O)CNC(=O)[C@H](Cc2ccccc2)NC(=O)[C@H](CCCCN)NC(=O)[C@H](CCCCN)NC(=O)[C@H](CCCCN)NC(=O)[C@H](CCCCN)NC(=O)[C@H](Cc2c[nH]cn2)NC(=O)[C@]2(C)CCCC=CCCC[C@](C)(NC(=O)CN)C(=O)NCC(=O)N[C@@H](CCCCN)C(=O)N[C@@H](Cc3ccccc3)C(=O)N2)CCCC=CCCC[C@@](C)(C(=O)N[C@@H](C)C(=O)N[C@@H](CCCCN)C(=O)N[C@@H](CCCCN)C(N)=O)NC(=O)[C@H](CCC(=O)O)NC1=O [compound 21] (H-G[S5]GKF[S5]HKKKKFGKA[S5]VVE[S5]AKK-NH2; staple 2-6, 16-20) | 208 µg/mL (≈ 79.5 µM)
